Measurements as given in ChEMBL document CHEMBL1649502, “Characterization of cefoxitin-resistant Escherichia coli isolates from recreational beaches and private drinking water in Canada between 2004 and 2006” (2009).

test system: Escherichia coli; assay: Antibacterial activity against cefoxitin-resistant Escherichia coli by microdilution method; assay type: functional

| SMILES | MIC [µg/mL] |
| --- | --- |
| CO[C@@]1(NC(=O)Cc2cccs2)C(=O)N2C(C(=O)O)=C(COC(N)=O)CS[C@@H]21 [CEFOXITIN] | ≥ 16 |
| CO/N=C(\C(=O)N[C@@H]1C(=O)N2C(C(=O)O)=C(CSC(=O)c3ccco3)CS[C@H]12)c1csc(N)n1 [CEFTIOFUR] | ≥ 8 |
| CN[C@@H]1[C@H](O[C@H]2[C@H](O[C@H]3[C@H](O)[C@@H](O)[C@H](N=C(N)N)[C@@H](O)[C@@H]3N=C(N)N)O[C@@H](C)[C@]2(O)C=O)O[C@@H](CO)[C@H](O)[C@H]1O [STREPTOMYCIN] | ≥ 64 |
